14 compounds from article PMC9074662, “Discovery of dihydrooxazolo[2,3-a]isoquinoliniums as highly specific inhibitors of hCE2” (RSC Advances, 2019) can be followed below.

One test has as its target T1, hCE1 (Homo sapiens, UniProt P23141).
T1 construct: tissue Bioreclamation IVT lot no; X008067; host or cells: pooled human liver microsomes, 50 donors
T1 sequence (P23141 18-567): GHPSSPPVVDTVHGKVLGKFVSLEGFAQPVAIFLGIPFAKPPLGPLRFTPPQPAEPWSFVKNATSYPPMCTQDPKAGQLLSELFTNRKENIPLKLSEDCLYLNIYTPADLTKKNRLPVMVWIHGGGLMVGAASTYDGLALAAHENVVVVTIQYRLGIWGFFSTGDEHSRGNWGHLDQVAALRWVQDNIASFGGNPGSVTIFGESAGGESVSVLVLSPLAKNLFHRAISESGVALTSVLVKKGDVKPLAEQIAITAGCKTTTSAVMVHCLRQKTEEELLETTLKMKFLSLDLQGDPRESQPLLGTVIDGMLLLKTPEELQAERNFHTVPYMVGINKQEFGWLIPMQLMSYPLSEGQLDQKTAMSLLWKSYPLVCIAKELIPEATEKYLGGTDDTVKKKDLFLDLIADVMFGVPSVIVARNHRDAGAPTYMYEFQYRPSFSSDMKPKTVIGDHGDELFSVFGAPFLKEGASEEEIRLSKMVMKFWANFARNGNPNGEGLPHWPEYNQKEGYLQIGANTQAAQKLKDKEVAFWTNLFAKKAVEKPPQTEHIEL
Briefly: hCE1 inhibition assay (DME hydrolysis in human liver microsomes). The note with it: DME probe substrate (3 μM), HLM, PBS pH 6.8, 37 °C. The test is classed as biochemical. An excerpt:
We designed and synthesized more than 30 derivatives of DCZ0358. However, the five-ring quaternary ammonium component of some derivatives was unstable to decompose easily into its hydrolyzate 23b. With 12 stable compounds in hand, we conducted experiments to assay inhibitory activities against both hCE1 and hCE2 using a panel of fluorescent probe substrates.[33–36]D-Luciferin methyl ester (DME) was used as a probe substrate, and nevadensin (a specific hCE1 inhibitor) was used as a positive inhibitor control for hCE1. […] DME was used as a probe substrate for evaluating the inhibitory effects of all DCZ0358 derivatives on hCE1, while nevadensin (a specific hCE1 inhibitor) was used as a positive control.[39] Briefly, 100 μL incubation mixture containing 91 μL PBS (pH 6.8), 2 μL inhibitor at different concentrations and 5 μL HLM (1 μg mL^−1, final concentration), were pre-incubated at 37 °C for 10 min. Subsequently, 2 μL DME (3 μM final concentration, close to the Km value of DME in HLM) was added to initiate the reaction. After incubating for 10 min at 37 °C in a shaking bath, the reaction was stopped by the addition of LDR (100 μL). The microplate reader (SpectraMax® iD3, Molecular Devices, Austria) was used for luminescence measurements. The gain value of luminescence detection was set at 140 volts, and the integration time was set at 1 s. The chemical structure of DME and its hydrolytic metabolite (D-luciferin), as well as the detection conditions for D-luciferin are depicted in Table S1. ^† The negative control incubation (DMSO only) was carried out under the same conditions. The residual activity was calculated using the following formula, the residual activity (%) = (the florescence intensity in the presence of inhibitor)/the florescence intensity in negative control × 100%. The residual activities are show in Fig. S1. ^†
(Liver microsomes are a subcellular fraction often used to study metabolism.)

A further test has as its target T2, hCE2 (Homo sapiens, UniProt O00748).
T2 construct: tissue Bioreclamation IVT lot no; X008067; host or cells: pooled human liver microsomes, 50 donors
T2 sequence (O00748 27-559): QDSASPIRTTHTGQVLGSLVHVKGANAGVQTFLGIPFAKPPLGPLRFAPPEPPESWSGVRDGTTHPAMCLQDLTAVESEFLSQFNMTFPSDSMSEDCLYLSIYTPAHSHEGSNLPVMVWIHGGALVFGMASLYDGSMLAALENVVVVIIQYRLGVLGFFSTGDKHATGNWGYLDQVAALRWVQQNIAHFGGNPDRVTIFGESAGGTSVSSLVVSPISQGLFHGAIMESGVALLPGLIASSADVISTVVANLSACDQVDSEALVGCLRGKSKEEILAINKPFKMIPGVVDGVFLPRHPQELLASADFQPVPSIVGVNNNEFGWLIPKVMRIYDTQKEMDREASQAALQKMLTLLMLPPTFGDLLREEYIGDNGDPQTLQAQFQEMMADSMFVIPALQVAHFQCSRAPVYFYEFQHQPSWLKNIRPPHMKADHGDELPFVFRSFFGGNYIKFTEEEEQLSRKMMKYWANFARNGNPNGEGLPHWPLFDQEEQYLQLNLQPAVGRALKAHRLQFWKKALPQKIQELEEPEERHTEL
Kind of test: hCE2 inhibition assay (FD hydrolysis in human liver microsomes). The test is classed as biochemical. The note with it: for IC50: FD probe substrate (5 μM), HLM, PBS pH 7.4, 37 °C; for Selectivity IC50(hCE1)/IC50(hCE2): ratio of IC50 values, hCE2 over hCE1 selectivity (fold). The method, then: In brief, 200 μL incubation mixture containing 0.1 M PBS (PH = 7.4), human liver microsomes (2 μg mL^−1, final concentration) and each inhibitor. […] After incubating for 30 min at 37 °C in a shaking bath, the reaction was stopped by the addition of acetonitrile (200 μL). The chemical structure of FD and its hydrolytic metabolite (fluorescein), as well as the detection conditions for fluorescein are depicted in Table S1. ^† The negative control incubation (DMSO only) was also carried out under the same conditions.[42] The residual activity was calculated using the formula mentioned above in hCE1 inhibition assay.

Regarding `COc1ccc2cc(-c3ccc4c(c3)OCO4)[n+]3c(c2c1OC)OCC3OC` (stereo not shown) [Compound 23a], the IC50 on hCE1 amounted to 4.04 ± 0.4 µM; against hCE2, 16 ± 1.49 µM. Further, the “Selectivity IC50(hCE1)/IC50(hCE2)” value at hCE2 is recorded as above 0.25.

Turning to `COc1ccc2cc(-c3ccc4c(c3)OCO4)n(C(CO)OC)c(=O)c2c1OC` (stereo not shown) [Compound 23b], the half-inhibitory concentration (IC50) at hCE1 was found to be 36.8 ± 7.7 µM. On hCE2, inhibition was half-maximal at 41.7 ± 18.1 µM (IC50) and the “Selectivity IC50(hCE1)/IC50(hCE2)” value was above 0.88.

Compound `COc1ccc(COc2cc(-c3cc4ccc(OC)c(OC)c4c4[n+]3C(OC)CO4)ccc2OC)cc1` (stereo not shown) [Compound 23d, 3,9,10-trimethoxy-5-(4-methoxy-3-((4-methoxybenzyl)oxy)phenyl)-2,3-dihydrooxazolo[2,3-a]isoquinolin-4-ium] returned a concentration for half-maximal inhibition (IC50) on hCE1 above 100 µM. Also, at hCE2, the IC50 amounted to 6.89 µM and the “Selectivity IC50(hCE1)/IC50(hCE2)” value is reported as above 14.52.

As for `COc1ccc(-c2cc3ccc(OC)c(OC)c3c3[n+]2C(OC)CO3)cc1OCc1ccc(S(C)(=O)=O)cc1` (stereo not shown) [Compound 23e, 3,9,10-Trimethoxy-5-(4-methoxy-3-((4-(methylsulfonyl)benzyl)oxy)phenyl)-2,3-dihydrooxazolo[2,3-a]isoquinolin-4-ium], the IC50 against hCE1 is above 100 µM; against hCE2 it was 11.5 ± 1.76 µM. Also, on hCE2, the “Selectivity IC50(hCE1)/IC50(hCE2)” value is above 8.72.

On to `COC(=O)c1ccc(COc2cc(-c3cc4ccc(OC)c(OC)c4c4[n+]3C(OC)CO4)ccc2OC)cc1` (stereo not shown) [Compound 23f, 3,9,10-Trimethoxy-5-(4-methoxy-3-((4-(methoxycarbonyl)benzyl)oxy)phenyl)-2,3-dihydrooxazolo[2,3-a]isoquinolin-4-ium], for which the IC50 against hCE1 is above 100 µM; at hCE2, 5.73 ± 0.79 µM. The “Selectivity IC50(hCE1)/IC50(hCE2)” value on hCE2 is above 17.46.

In turn, `COc1ccc(-c2cc3ccc(OC)c(OC)c3c3[n+]2C(OC)CO3)cc1OCc1ccc(C#N)cc1` (stereo not shown) [Compound 23g, 5-(3-((4-Cyanobenzyl)oxy)-4-methoxyphenyl)-3,9,10-trimethoxy-2,3-dihydrooxazolo[2,3-a]isoquinolin-4-ium] came in with an IC50 at hCE1 above 100 µM. Also, at hCE2, the IC50 amounted to 3.33 ± 0.32 µM and the “Selectivity IC50(hCE1)/IC50(hCE2)” value is above 30.07.

For the compound `COc1ccc(-c2cc3ccc(OC)c(OC)c3c3[n+]2C(OC)CO3)cc1OCc1ccc([N+](=O)[O-])cc1` (stereo not shown) [Compound 23h, 3,9,10-Trimethoxy-5-(4-methoxy-3-((4-nitrobenzyl)oxy)phenyl)-2,3-dihydrooxazolo[2,3-a]isoquinolin-4-ium], the IC50 at hCE1 was above 100 µM. For the same compound, at hCE2, half-maximal inhibition (IC50) required 3.32 ± 0.87 µM and the “Selectivity IC50(hCE1)/IC50(hCE2)” value is on record as above 30.14.

Turning to `COc1ccc(-c2cc3ccc(OC)c(OC)c3c3[n+]2C(OC)CO3)cc1OCc1ccc(C(F)(F)F)cc1` (stereo not shown) [Compound 23i, 3,9,10-Trimethoxy-5-(4-methoxy-3-((4-(trifluoromethyl)benzyl)oxy)phenyl)-2,3-dihydrooxazolo[2,3-a]isoquinolin-4-ium], on hCE1, the IC50 is above 100 µM. Further, on hCE2, the IC50 is 2.43 ± 0.28 µM and the “Selectivity IC50(hCE1)/IC50(hCE2)” value is recorded as above 41.22.

Consider `COc1ccc(-c2cc3ccc(OC)c(OC)c3c3[n+]2C(OC)CO3)cc1OCc1ccc2cccnc2c1` (stereo not shown) [Compound 23j, 3,9,10-Trimethoxy-5-(4-methoxy-3-(quinolin-7-ylmethoxy)phenyl)-2,3-dihydrooxazolo[2,3-a]isoquinolin-4-ium], for which the IC50 against hCE1 is above 100 µM. Further, at hCE2, inhibition was half-maximal at 3.77 ± 0.25 µM (IC50) and the “Selectivity IC50(hCE1)/IC50(hCE2)” value was above 26.51.

At hCE1, `COc1ccc(-c2cc3ccc(OC)c(OC)c3c3[n+]2C(OC)CO3)cc1OCc1ccc(C)cc1` (stereo not shown) [Compound 23k, 3,9,10-Trimethoxy-5-(4-methoxy-3-((4-methylbenzyl)oxy)phenyl)-2,3-dihydrooxazolo[2,3-a]isoquinolin-4-ium] showed a concentration for half-maximal inhibition (IC50) above 100 µM. At hCE2, the IC50 was determined as 5.58 ± 0.94 µM and the “Selectivity IC50(hCE1)/IC50(hCE2)” value is listed as above 17.94.

`COc1ccc(-c2cc3ccc(OC)c(OC)c3c3[n+]2C(OC)CO3)cc1OCc1ccc(-c2ccccc2)cc1` (stereo not shown) [Compound 23l, 5-(3-([1,1′-Biphenyl]-4-ylmethoxy)-4-methoxyphenyl)-3,9,10-trimethoxy-2,3-dihydrooxazolo[2,3-a]isoquinolin-4-ium] came in with a concentration for half-maximal inhibition (IC50) against hCE1 above 100 µM. Also, on hCE2, the IC50 came to 2.64 ± 0.45 µM and the “Selectivity IC50(hCE1)/IC50(hCE2)” value was above 37.89.

On to `COc1ccc(-c2cc3ccc(OC)c(OC)c3c3[n+]2C(OC)CO3)cc1OCc1ccc(C(C)(C)C)cc1` (stereo not shown) [Compound 23m, 5-(3-((4-(tert-Butyl)benzyl)oxy)-4-methoxyphenyl)-3,9,10-trimethoxy-2,3-dihydrooxazolo[2,3-a]isoquinolin-4-ium], for which the IC50 against hCE1 is above 100 µM. Moreover, on hCE2, inhibition was half-maximal at 2.33 ± 0.2 µM (IC50) and the “Selectivity IC50(hCE1)/IC50(hCE2)” value is listed as above 42.81.

As to `COc1ccc(-c2cc3ccc(OC)c(OC)c3c3[n+]2C(OC)CO3)cc1OCc1ccc(C(C)C)cc1` (stereo not shown) [Compound 23n, 5-(3-((4-Isopropylbenzyl)oxy)-4-methoxyphenyl)-3,9,10-trimethoxy-2,3-dihydrooxazolo[2,3-a]isoquinolin-4-ium], the half-maximal inhibitory concentration (IC50) is above 100 µM on hCE1 and 1.66 ± 0.21 µM on hCE2. Moreover, at hCE2, the “Selectivity IC50(hCE1)/IC50(hCE2)” value is above 60.31.

Take `COc1ccc(-c2cc(=O)c3c(O)c(OC)c(O)c(OC)c3o2)cc1` [Nevadensin, reference compound]: the IC50 on hCE1 is 2.64 ± 0.22 µM.

Usually IC50 stands for the concentration that inhibits the measured activity by half. Read a high IC50 as a need for much substance.
